Experimental data as given in ChEMBL document CHEMBL1153306, “Relation between lipophilicity of alkyl gallates and antifungal activity against yeasts and filamentous fungi” (Bioorg Med Chem Lett, 2009).
Values after ≈ are worked out from the molar mass of the structure shown.

How the values were obtained:
Aspergillus fumigatus = assay: Antimicrobial activity against Aspergillus fumigatus after 48 hrs by broth microdilution technique; format: functional
Candida tropicalis = assay: Antifungal activity against Candida tropicalis after 48 hrs by broth microdilution technique; format: functional
Aspergillus niger = assay: Antimicrobial activity against Aspergillus niger after 48 hrs by broth microdilution technique; format: functional
Saccharomyces cerevisiae = assay: Antifungal activity against Saccharomyces cerevisiae after 48 hrs by broth microdilution technique; format: functional
Cryptococcus neoformans = assay: Antifungal activity against Cryptococcus neoformans after 48 hrs by broth microdilution technique; format: functional
Candida albicans = assay: Antifungal activity against Candida albicans after 48 hrs by broth microdilution technique; format: functional
Epidermophyton floccosum = assay: Antimicrobial activity against Epidermophyton floccosum after 48 hrs by broth microdilution technique; format: functional
Aspergillus flavus = assay: Antimicrobial activity against Aspergillus flavus after 48 hrs by broth microdilution technique; format: functional
Trichophyton rubrum = assay: Antimicrobial activity against Trichophyton rubrum after 48 hrs by broth microdilution technique; format: functional
[1] = tested on: Trichophyton mentagrophytes; assay: Antimicrobial activity against Trichophyton mentagrophytes after 48 hrs by broth microdilution technique; format: functional
Nannizzia gypsea = assay: Antimicrobial activity against Microsporum gypseum after 48 hrs by broth microdilution technique; format: functional
[2] = Lipophilicity, log P of the compound; format: physicochemical; conditions: octanol/water

CCCCCOC(=O)c1cc(O)c(O)c(O)c1 [PENTYL GALLATE]
MIC (Aspergillus fumigatus): > 250 µg/mL | MIC (Candida tropicalis): > 250 µg/mL | MIC (Aspergillus niger): > 250 µg/mL | MIC (Saccharomyces cerevisiae): > 250 µg/mL | MIC (Cryptococcus neoformans): > 250 µg/mL | MIC (Candida albicans): > 250 µg/mL | MIC (Epidermophyton floccosum): 100 µg/mL (≈ 416 µM) | MIC (Aspergillus flavus): > 250 µg/mL | MIC (Trichophyton rubrum): 50 µg/mL (≈ 208 µM) | MIC [1]: 50 µg/mL (≈ 208 µM) | MIC (Nannizzia gypsea): 50 µg/mL (≈ 208 µM)

CC(=O)Oc1cc(C(=O)O)cc(OC(C)=O)c1OC(C)=O [3,4,5-TRIACETOXYBENZOIC ACID]
MIC (Aspergillus fumigatus): > 250 µg/mL | MIC (Candida tropicalis): > 250 µg/mL | MIC (Aspergillus niger): > 250 µg/mL | MIC (Saccharomyces cerevisiae): > 250 µg/mL | MIC (Cryptococcus neoformans): > 250 µg/mL | MIC (Candida albicans): > 250 µg/mL | MIC (Epidermophyton floccosum): > 250 µg/mL | MIC (Aspergillus flavus): > 250 µg/mL | MIC (Trichophyton rubrum): > 250 µg/mL | MIC [1]: > 250 µg/mL | MIC (Nannizzia gypsea): > 250 µg/mL

CCOC(=O)c1cc(O)c(O)c(O)c1 [ETHYLGALLATE]
MIC (Aspergillus fumigatus): > 250 µg/mL | MIC (Candida tropicalis): > 250 µg/mL | MIC (Aspergillus niger): > 250 µg/mL | MIC (Saccharomyces cerevisiae): > 250 µg/mL | MIC (Cryptococcus neoformans): > 250 µg/mL | MIC (Candida albicans): > 250 µg/mL | MIC (Epidermophyton floccosum): 100 µg/mL (≈ 505 µM) | MIC (Aspergillus flavus): > 250 µg/mL | MIC (Trichophyton rubrum): 100 µg/mL (≈ 505 µM) | MIC [1]: 100 µg/mL (≈ 505 µM) | MIC (Nannizzia gypsea): 100 µg/mL (≈ 505 µM)

CCCCCCOC(=O)c1cc(O)c(O)c(O)c1 [HEXYL GALLATE]
MIC (Aspergillus fumigatus): > 250 µg/mL | MIC (Candida tropicalis): > 250 µg/mL | MIC (Aspergillus niger): > 250 µg/mL | MIC (Saccharomyces cerevisiae): > 250 µg/mL | MIC (Cryptococcus neoformans): > 250 µg/mL | MIC (Candida albicans): > 250 µg/mL | MIC (Epidermophyton floccosum): 25 µg/mL (≈ 98.3 µM) | MIC (Aspergillus flavus): > 250 µg/mL | MIC (Trichophyton rubrum): 25 µg/mL (≈ 98.3 µM) | MIC [1]: 25 µg/mL (≈ 98.3 µM) | MIC (Nannizzia gypsea): 25 µg/mL (≈ 98.3 µM)

CC(=O)N1CCN(c2ccc(OCC3COC(Cn4ccnc4)(c4ccc(Cl)cc4Cl)O3)cc2)CC1 (configuration not stated) [KETOCONAZOLE]
MIC (Aspergillus fumigatus): 0.78 µg/mL (≈ 1.47 µM) | MIC (Candida tropicalis): 0.125 µg/mL (≈ 0.235 µM) | MIC (Aspergillus niger): 1.56 µg/mL (≈ 2.94 µM) | MIC (Saccharomyces cerevisiae): 3.12 µg/mL (≈ 5.87 µM) | MIC (Cryptococcus neoformans): 0.39 µg/mL (≈ 0.734 µM) | MIC (Candida albicans): 1.56 µg/mL (≈ 2.94 µM) | MIC (Aspergillus flavus): 0.78 µg/mL (≈ 1.47 µM)

O=C(O)c1cc(O)c(O)c(O)c1 [GALLIC ACID]
MIC (Aspergillus fumigatus): > 250 µg/mL | MIC (Candida tropicalis): > 250 µg/mL | MIC (Aspergillus niger): > 250 µg/mL | MIC (Saccharomyces cerevisiae): > 250 µg/mL | MIC (Cryptococcus neoformans): > 250 µg/mL | MIC (Candida albicans): > 250 µg/mL | MIC (Epidermophyton floccosum): 100 µg/mL (≈ 588 µM) | MIC (Aspergillus flavus): > 250 µg/mL | MIC (Trichophyton rubrum): 100 µg/mL (≈ 588 µM) | MIC [1]: 125 µg/mL (≈ 735 µM) | MIC (Nannizzia gypsea): > 250 µg/mL

COC(=O)c1cc(O)c(O)c(O)c1 [GALLIC ACID METHYL ESTER]
MIC (Aspergillus fumigatus): > 250 µg/mL | MIC (Candida tropicalis): > 250 µg/mL | MIC (Aspergillus niger): > 250 µg/mL | MIC (Saccharomyces cerevisiae): > 250 µg/mL | MIC (Cryptococcus neoformans): > 250 µg/mL | MIC (Candida albicans): > 250 µg/mL | MIC (Epidermophyton floccosum): 100 µg/mL (≈ 543 µM) | MIC (Aspergillus flavus): > 250 µg/mL | MIC (Trichophyton rubrum): 100 µg/mL (≈ 543 µM) | MIC [1]: 100 µg/mL (≈ 543 µM) | MIC (Nannizzia gypsea): 100 µg/mL (≈ 543 µM)

CCCCCCCCCOC(=O)c1cc(O)c(O)c(O)c1 [NONYL GALLATE]
MIC (Aspergillus fumigatus): 62.5 µg/mL (≈ 211 µM) | MIC (Candida tropicalis): 8 µg/mL (≈ 27 µM) | MIC (Aspergillus niger): 125 µg/mL (≈ 422 µM) | MIC (Saccharomyces cerevisiae): 8 µg/mL (≈ 27 µM) | MIC (Cryptococcus neoformans): 8 µg/mL (≈ 27 µM) | MIC (Candida albicans): 8 µg/mL (≈ 27 µM) | MIC (Epidermophyton floccosum): 25 µg/mL (≈ 84.4 µM) | MIC (Aspergillus flavus): 62.5 µg/mL (≈ 211 µM) | MIC (Trichophyton rubrum): 8 µg/mL (≈ 27 µM) | MIC [1]: 8 µg/mL (≈ 27 µM) | logP [2]: 3.7 | MIC (Nannizzia gypsea): 8 µg/mL (≈ 27 µM)

CCCCCCCCCCCOC(=O)c1cc(O)c(O)c(O)c1 [UNDECYL GALLATE]
MIC (Aspergillus fumigatus): > 250 µg/mL | MIC (Candida tropicalis): 200 µg/mL (≈ 616 µM) | MIC (Aspergillus niger): > 250 µg/mL | MIC (Saccharomyces cerevisiae): 200 µg/mL (≈ 616 µM) | MIC (Cryptococcus neoformans): 100 µg/mL (≈ 308 µM) | MIC (Candida albicans): 250 µg/mL (≈ 771 µM) | MIC (Aspergillus flavus): > 250 µg/mL | MIC (Trichophyton rubrum): 125 µg/mL (≈ 385 µM) | MIC [1]: 100 µg/mL (≈ 308 µM) | MIC (Nannizzia gypsea): 125 µg/mL (≈ 385 µM)

CCCCCCCCCCCCCCCCOC(=O)c1cc(O)c(O)c(O)c1 [HEXADECYL GALLATE]
MIC (Aspergillus fumigatus): > 250 µg/mL | MIC (Candida tropicalis): > 250 µg/mL | MIC (Aspergillus niger): > 250 µg/mL | MIC (Saccharomyces cerevisiae): > 250 µg/mL | MIC (Cryptococcus neoformans): > 250 µg/mL | MIC (Candida albicans): > 250 µg/mL | MIC (Aspergillus flavus): > 250 µg/mL | MIC (Trichophyton rubrum): 250 µg/mL (≈ 634 µM) | MIC [1]: 125 µg/mL (≈ 317 µM) | MIC (Nannizzia gypsea): 250 µg/mL (≈ 634 µM)

CCCCCCCCCCCCCCOC(=O)c1cc(O)c(O)c(O)c1 [TETRADECYL GALLATE]
MIC (Aspergillus fumigatus): > 250 µg/mL | MIC (Candida tropicalis): > 250 µg/mL | MIC (Aspergillus niger): > 250 µg/mL | MIC (Saccharomyces cerevisiae): > 250 µg/mL | MIC (Cryptococcus neoformans): 250 µg/mL (≈ 682 µM) | MIC (Candida albicans): > 250 µg/mL | MIC (Epidermophyton floccosum): > 250 µg/mL | MIC (Aspergillus flavus): > 250 µg/mL | MIC (Trichophyton rubrum): 50 µg/mL (≈ 136 µM) | MIC [1]: 50 µg/mL (≈ 136 µM) | MIC (Nannizzia gypsea): 100 µg/mL (≈ 273 µM)

CCCOC(=O)c1cc(O)c(O)c(O)c1 [PROPYL GALLATE]
MIC (Aspergillus fumigatus): > 250 µg/mL | MIC (Candida tropicalis): > 250 µg/mL | MIC (Aspergillus niger): > 250 µg/mL | MIC (Saccharomyces cerevisiae): > 250 µg/mL | MIC (Cryptococcus neoformans): > 250 µg/mL | MIC (Candida albicans): > 250 µg/mL | MIC (Epidermophyton floccosum): 100 µg/mL (≈ 471 µM) | MIC (Aspergillus flavus): > 250 µg/mL | MIC (Trichophyton rubrum): 50 µg/mL (≈ 236 µM) | MIC [1]: 100 µg/mL (≈ 471 µM) | MIC (Nannizzia gypsea): 75 µg/mL (≈ 353 µM)
